How the values were obtained:
[1] = system: de novo cholesterol synthesis; assay: Decreasing de novo cholesterol synthesis (radiolabeled acetate incorporation into cholesterol in CHO cells); assay type: cell-based, Chinese Hamster (CHO cells); conditions: Cricetulus griseus, 19 h, % of control culture (Control = 100)
Method: The ability of the compounds of Formula I to decrease de novo cholesterol synthesis was tested by measuring the incorporation of radiolabeled acetate into cholesterol synthesized in CHO cells. To conduct this experiment, CHO cells were plated at 0.3×10^6 cells per 15×60 mm tissue culture dish in 5 mL of McCoy's modified medium (Gibco Laboratories) containing 1% Cab-O-Sil delipidated FBS and incubated for 48 hours at 37° in a 5% CO2, 95% air environment. Test compounds in a 2.5% suspension of BSA (fatty acid free) in ethanol were then added to the cultures such that the final ethanol and BSA concentrations were 0.5% and 2.5%, respectively. Control cultures received ethanol and BSA alone. […]
The cells were harvested by washing the cells twice with 5 mL of cold PBS and scraping the cells into 1 mL PBS. […] The petroleum ether fractions were dried under nitrogen, resuspended in ethanol, counted and analyzed by reverse phase HPLC at 45° using an Ultrashpere Octyl column (from Altex Scientific Inc., Berkeley, Calif.) with a mobile phase of acetonitrile:methanol:water (44:44:12). The amount of cholesterol synthesis is measured by the amount of radiolabeled acetate incorporated into the cholesterol peak. The percent of cholesterol synthesis in the treated culture is calculated based upon the control culture.

[2] = target: T1, Lanosta-8,24-dien-3β-ol 14α-methyl demethylase (Rattus norvegicus, UniProt Q64654); assay: Lanosta-8,24-dien-3β-ol 14α-Methyl Demethylase Inhibition Assay; assay type: biochemical
T1 construct: rat hepatic microsomal preparations; from tissue; host or cells: rat liver microsomes
T1 sequence (Q64654 1-503): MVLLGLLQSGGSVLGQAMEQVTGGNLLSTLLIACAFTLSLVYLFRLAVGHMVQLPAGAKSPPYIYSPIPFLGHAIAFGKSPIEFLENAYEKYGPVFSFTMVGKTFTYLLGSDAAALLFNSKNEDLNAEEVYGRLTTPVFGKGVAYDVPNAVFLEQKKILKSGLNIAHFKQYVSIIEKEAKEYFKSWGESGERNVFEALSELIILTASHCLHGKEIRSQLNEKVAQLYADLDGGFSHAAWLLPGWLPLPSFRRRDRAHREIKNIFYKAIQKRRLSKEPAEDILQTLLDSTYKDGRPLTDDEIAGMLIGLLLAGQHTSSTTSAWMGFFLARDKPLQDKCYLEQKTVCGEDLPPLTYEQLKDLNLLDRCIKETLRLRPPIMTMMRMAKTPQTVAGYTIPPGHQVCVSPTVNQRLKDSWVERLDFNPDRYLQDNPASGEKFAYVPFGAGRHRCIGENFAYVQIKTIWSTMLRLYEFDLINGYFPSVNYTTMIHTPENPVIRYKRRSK
Method: B. Lanosta-8,24-dien-3β-ol 14α-Methyl Demethylase Inhibition Assay
Lanosta-8,24-dien-3β-ol 14α-methyl demethylase activity was determined in rat hepatic microsomal preparations as described in Trzaskos et al., J. Biol. Chem., 261, 16937-16942 (1986). Specifically, test compounds were added to assay mixtures as detergent suspensions with substrate employing 5 mg Triton WR-1339, 100 μM lanost-8-en-3β-ol substrate, and test compounds ranging from 0 to 100 μM. The inhibitor/substrate/detergent suspension was incubated with 2 mg microsomal protein for 5 min at 37° followed by a 10 min incubation initiated by the addition of cofactors required for the reaction. […] Inhibition values are expressed as the amount of compound required to inhibit lanosta-8,24-dien-3β-ol 14α-methyldemethylase activity by 50% relative to that of the controls.

[3] = system: 3-Hydroxy-3-Methylglutaryl Coenzyme A Reductase (HMGR); assay: HMGR Suppression Assay (HMGR activity in digitonin-permeabilized CHO cells); assay type: cell-based, Chinese Hamster (CHO cells); conditions: tested under the same conditions as Table I
Method: The ability of the compounds of Formula I to suppress the activity of HMGR, the rate limiting enzyme of cholesterol biosynthesis, was tested as follows. Chinese Hamster Ovary (CHO) cells were divided twice weekly and were maintained in McCoy's 5A medium supplemented with 1% Cab-O-Sil delipidated Fetal Bovine Serum (FBS) (obtained from Gibco Laboratories, Chagrin Falls, Ohio). […] Control cells were treated in an identical fashion to those which received test compound, except they were incubated with the BSA and ethanol suspension only.
Specifically, the medium in each well was aspirated and the cells rinsed with a 50 mM solution of phosphate buffered saline (PBS). One mL of 30 μg/mL of digitonin in CSK buffer (prepared using 10 mM Pipes [piperazine-N,N'-bis(2-ethansulfonic)acid'], 100 mM KCl, 2.5 mM MgCl2, 300 mM sucrose, 1 mM EGTA, pH 6.8) was added to each well and incubated for 10 min at 22° to permeabilize the cells. […] HMGR activity was measured directly by adding 75 μL of PIB buffer (50 mM potassium phosphate, 1 mM Na2 EDTA, 10 mM dithiothreitol, pH 7.4) to each well and incubating the cells for 30 minutes at 37° as described above. […] The assay mixture was incubated for 30 min at 37° and terminated by the addition of 70 μL of [^3 H]-mevalonic acid (35,000 DPM/assay), 0.15 mg/mL in 3 N HCl. The reaction was left to lactonize for an additional 30 min at 37° or overnight at room temperature.
Reaction products were separated by thin layer chromatography on silica gel G (obtained from Analtech, Newark, Del.) developed in an unsaturated environment with acetone:benzene (3:2, v:v). The band corresponding to mevalonolactone was identified by exposure to iodine vapor and was scraped into counting vials. […] Corrections for recovery and blank values were made for each sample. […] Cellular protein was solubilized from culture dishes by the addition of 20 μL of 16 N KOH and assayed directly for protein amount. Suppression values are expressed as the amount of compound required to suppress HMGR activity by 50% relative to that of the controls.

SMILES	activity at 1 µM [1] [%]	IC50 ([2]; rat hepatic microsomes, 100 μM lanost-8-en-3β-ol substrate, test compounds 0 to 100 μM) [nM]	effect on lanosta-8,24-dien-3β-ol 14α-methyl demethylase activity ([2]; tested under the same conditions as Table I)	effect on measured HMGR activity [3]	substrate for the demethylase enzyme [2]
C=CC(O)[C@@]12CC[C@H]([C@H](C)CCCC(C)C)[C@@]1(C)CCC1=C2CC[C@H]2C(C)(C)[C@@H](O)CC[C@]12C (single isomer, unassigned) [Compound 11a, 4,4-dimethyl-14α-(1'-hydroxy-2'-propenyl)-5α-cholest-8-en-3β-ol]	1	800	–	–	–
CC(C)CCC[C@@H](C)[C@H]1CC[C@H]2[C@@H]3CC=C4C[C@@H](O)CC[C@]4(C)[C@H]3CC[C@]12C [cholesterol]	–	–	without effect	without effect	–
CC(C)CCC[C@@H](C)[C@H]1CC[C@@]2(C)C3=C(CC[C@]12C)[C@@]1(C)CC[C@H](O)C(C)(C)[C@@H]1CC3 [lanost-8-en3β-ol, lanost-8-en-3β-ol]	–	–	–	without effect	clearly served as substrates
CC(C)=CCC[C@@H](C)[C@H]1CC[C@@]2(C)C3=C(CC[C@]12C)[C@@]1(C)CC[C@H](O)C(C)(C)[C@@H]1CC3 [lanosta-8,24-dien-3β-ol]	–	–	–	without effect	clearly served as substrates

Reference: patent US5041432A, “Steroid derivatives useful as hypocholesterolemics” (E. I. Du Pont de Nemours and Company, priority 1990, dated 1991)
